Measured values as given in patent US6767890B1, “Peptides having anti-cancer and anti-inflammatory activity” (priority 1998, dated 2004).
Values joined by “and” are separate entries in the source; they are usually repeats but may differ in a detail not shown here. Identical values can stand only once.

Legend:
[1] = tested on: Adjuvant Induced Arthritis; assay: Adjuvant Induced Arthritis Model; assay type: in vivo; conditions: rat, 20 mg per KG body weight orally once per day for 14 days, Day 14
Description: Adjuvant Induced Arthritis Model: Male Sprague-Dawley rats (160-180 g) were sensitized by injecting Fruend's Complete Adjuvant (0.5% suspension of killed mycobacterium tuberculosis (H37RA, Difco in mineral oil)). 0.05 ml was administered intradermally at a plantar site on the right hind leg of each rat. The test materials were given orally (by gavage) in 0.5% methylcelluose, at a dose level of 20 milligrams per kilo body weight, and given once per day for 14 days. The administration was started the day after sensitization. The left hind paw was measured just before sensitization and on Day 14, and the plantar edema inhibitory rate and the body weight gain rate were determined in comparison with the nonsensitized rat groups. The paw weights for each group in each test run were averaged. Activity was calculated as follows: [formula]
The Anti-inflammatory response is the difference in the mean foot volume. […] FIG. 4.

[2] = tested on: DNBS-induced distal colitis; assay: Inflammation, Inflammatory Bowel Disease (DNBS distal colitis); assay type: in vivo, rat; conditions: PO, Peptide 30 mg/kg × 7, Sulfasalazine 300 mg/kg × 7
Description: (§1) For in vivo assay, distilled water and saline was used as vehicle in oral and intraperitoneal administration, respectively. Dosing volume was 20 ml/kg for mice or 10 ml/kg for rats.
Groups of 3 Sprague-Dawley derived male rats weighing 150±20 gms and fasted for 24 hours were used. Distal colitis was induced by intra-colonic instillation of DNBS (2,4-dinitrobenzene sulfonic acid, 30 mg in 0.5 ml ethanol 30%) after which air (2 ml) was gently injected through the cannula to ensure that the solution remains in the colon. Test substance was administered PO (30 mg/kg) at 24 and 2 hours before DNBS instillation. Then, the animals received test compound every 24 hours for 5 consecutive days. The control group was given vehicle alone as compound dosing pattern. The animals were sacrificed 24 hours after the final dose of test compound administration and each colon was removed and weighed. Colon-to-body weight ratio was obtained from the percentage of the comparison between the animal colon weight and body weight on the 8th day. A 30 percent or more (±30%) reduction in colon-to-body weight ratio relative to the vehicle treated control group was considered significant.

[3] = target: Protein Kinase C, Non-Select.; assay: Protein Kinase C, Non-Select. enzyme assay; assay type: biochemical, rat; conditions: historical value; read-out: ^1IC, (IC50 of reference compound)
Description: (§2) The peptide was further screened in vitro in a variety of enzyme and biochemical assays. Methods employed were adapted from the scientific literature to maximize reliability and reproducibility. The primary literature reference for each assay is listed in Table 11 opposite the results for each assay.
(§3) Results presented in Table 10, “Results,” are the average of duplicate determinations, unless otherwise noted.
(§4) Reference compounds were tested concurrently at 5 concentrations as an integral part of each assay to ensure the validity of the results obtained.
Enzyme assays were performed under conditions described in Table 8, “Experimental Conditions.”. The commercial suppliers and catalog numbers of substrates employed in this study are given in Table 7, “Material Sources.” The name, commercial source, and catalog numbers of concurrent reference compounds (controls) employed in this study are given in Table 9, “Reference Compound Data.” The reaction catalyzed by each enzyme is listed in Table 8, “Experimental Conditions.”
Biochemical assay results are presented in Table 10, as the percent inhibition of specific binding or activity, and unless noted are the average of duplicate tubes tested at each concentration.

PAF-induced mortality = assay: Platelet Activating Factor (PAF) Antagonism; assay type: in vivo, mouse; conditions: Peptide 100 mg/kg, WEB-2086 3 mg/kg
Description: as §1
Groups of 5 male ICR mice weighing 22±2 gms were employed. At dose of 100 mg/kg test substance dissolved in a vehicle of distilled water were administered orally. The control group received vehicle alone. At 60 minutes after dosing, the animals were injected intravenously PAF-acether ([…] IV, dissolved in 0.25% BSA). One hour later, the survival animals were recorded. The prevention of PAF-induced mortality in 50 percent or more (≧50%) of mice indicated significant activity.

Sarcoma 180 tumor = assay: Anti-Cancer Activity Against Mouse Tumor Sarcoma 180; assay type: in vivo; conditions: 10 mg/kg
Description: This model has been used extensively as indicative of neovascularization in mammals inasmuch as the tumor so implanted is quickly vascularizing.
Experimental Design: All mice were weighed at test initiation and test termination. The animals were divided into three groups. The Sarcoma 180 tumor was made up from a passage mouse to furnish […] per 0.1 mL inoculum. The cells were injected into the left leg hamstring muscle mass. The was delivered to the mice by I.P. injections, or gavage on days 1-5.
At the termination of the experiments, the mice were weighed and the left rear leg was amputated at the thigh. The skin was removed from the leg to expose the site at which the tumor was located. […].

histamine H3 receptor = target: T1, histamine H3 receptor (Cavia porcellus, UniProt Q9JI35); assay: Histamine H3 Agonism/Antagonism, guinea pig ileum; assay type: cell-based; conditions: Peptide 30 μM, Thioperamide 0.3 μM; for Agonism, Ave.: R(α)-Methylhistamine 0.3 μM; for Agonism: relaxation within 5 minutes relative to 0.3 μM R-α-methylhistamine, R(α)-Methylhistamine 0.3 μM (0.1 printed in r13)
T1 construct: ileum obtained from Duncan Hartley derived male or female guinea pigs; from tissue; host or cells: guinea pig ileum segment, field-stimulated
Description: A segment of ileum obtained from Duncan Hartley derived male or female guinea pigs weighing 325±25 gms and sacrificed by CO2 overexposure were used. The tissue was placed under 0.5 g tension in a 10 ml bath containing Kreb's solution pH 7.4 and pyrilamine (0.3 μM) at 32° C. and subjected to field stimulation (70% of maximum voltage, 0.1 Hz, 0.5 millisecond). Test substance (30 μM)-induced reduction of isometrically recorded contractions 50 percent or more (≧50%) within 5 minutes, relative to control 0.3 μM R-α-methylhistamine response, indicated possible histamine H3 receptor agonist activity. At a test substance concentration where no significant agonist activity was seen, ability to inhibit R-α-methylhistamine-induced response by 50 percent or more (≧50%) indicated histamine H3 receptor antagonist activity. Each concentration was tested on two separate preparations.

[4] = tested on: ovalbumin-induced bronchoconstriction; assay: Pulmonary, Histamine H3 (ovalbumin-induced bronchoconstriction); assay type: in vivo, guinea pig; conditions: Peptide PO 10 mg/kg, R-α-methylhistamine IV 30 mg/kg
Description: as §1
A group of Duncan Hartley derived male or female guinea pigs weighing 250±50 gms were anesthetized with pentobarbital sodium (50 mg/kg IP plus an additional 15 mg/kg IP if required) and succinylcholine chloride (2 mg/animal IP) was subsequently administered to prevent spontaneous respiration. Body temperature was maintained at 37° to 38° C. The trachea was cannulated and the guinea pig ventilated with a Harvard rodent respirator in a closed system. Tracheal pressure (TP) was recorded through a side-arm of the cannula connected to a P23ID Statham transducer. Respiratory rate set at 50 strokes/minute with a stroke volume (approximately 1 ml/100 g) sufficient to produce a baseline tracheal pressure of 6 cm H2O. Mean arterial pressure was monitored from a cannulated carotid artery, and heart rate was obtained from chest electrodes arranged for lead II. The jugular vein was cannulated for IV vehicle or drug administration in a volume of 1 ml/kg. Guinea pigs were sensitized with IP injections of ovalbumin 0.5 μg+Al(OH)3 1 mg (0.5 ml/animal) on days 1, and boosted with same dosage of ovalbumin and Al(OH)3 vaccine on day 8; and the animals were ready to be challenged between days 19 and 23 to get a submaximal ovalbumin (50 μg/kg IV)-induced bronchoconstriction, reflected as an increase in tracheal pressure (cm H2O). […]. Test substances were administered PO (10 mg/kg) at 60 minutes before ovalbumin (50 μg/kg IV) challenge in 3 guinea pigs. Tracheal pressure, blood pressure and heart rate were measured immediately before and after ovalbumin challenge.

[5] = tested on: oxazolone-induced ear swelling; assay: Immune Suppression, Cellular (oxazolone ear thickness); assay type: in vivo, mouse; conditions: IP, Peptide 100 mg/kg × 5, Cyclophosphamide 30 mg/kg × 5
Description: as §1
Groups of 5 ICR derived male mice weighing 22±1 gms were used. The preshaved abdominal surface was sensitized by application of oxazolone 0.1 ml of 5% solution. […] After additional four days, the animals were challenged by secondary application of oxazolone (0.025 ml of 5% solution) to the right ear. After a further 24 hours, each mouse was sacrificed and ear thickness measured with a Dyer Model micrometer gauge. A 30 percent or more (≧30%) decrease relative to the vehicle control group was considered significant and indicated possible immunosuppressant activity.

Histamine H3 = target: T2, Histamine H3 (Rattus norvegicus, UniProt Q9QYN8); assay: Histamine H3 radioligand binding; conditions: historical value
T2 construct: rat brain; from tissue; host or cells: rat brain
Description: as §2, §3, §4
Radioligand binding assays were performed under conditions described in Table 8, “Experimental Conditions.” Radioligands employed in this study are given in Table 8, and commercial sources and catalog numbers of the radioligands are provided in Table 7, “Material Sources.” Unlabeled, blocking ligands employed this study are listed in Table 8, “Experimenal Conditions,” along with the commercial sources and catalog number of the unlabeled ligand. The concurrent reference compound (control) employed in each assay is listed in Table 9, “Reference Compound Data,” along with the commercial supplier and catalog number of the compound. […]
Maximum total binding and nonspecific binding were determined each time each assay was run. […]
Where inhibition constants (Ki) are presented, the Ki values were calculated using the equation of Cheng and Prusoff (Cheng, Y., Prusoff, W. H., Biochem. Pharmacol. […], 1973) using the observed IC50 of the tested compound, the concentration of radioligand employed in the assay, and the historical values for the Kd of the ligand (obtained experimentally). Where presented, the Hill Coefficient (nH), defining the scope of the competitive binding curve, was calculated using GraphPad Prism. […] Where IC50, Ki, and/or Hill Slope data is presented without Standard Error of the Mean (SEM), data are insufficient to be quantitative, and the values presented (Ki, IC50, nH) should be interpreted with caution. […]

T1 sequence (Q9JI35 whole entry): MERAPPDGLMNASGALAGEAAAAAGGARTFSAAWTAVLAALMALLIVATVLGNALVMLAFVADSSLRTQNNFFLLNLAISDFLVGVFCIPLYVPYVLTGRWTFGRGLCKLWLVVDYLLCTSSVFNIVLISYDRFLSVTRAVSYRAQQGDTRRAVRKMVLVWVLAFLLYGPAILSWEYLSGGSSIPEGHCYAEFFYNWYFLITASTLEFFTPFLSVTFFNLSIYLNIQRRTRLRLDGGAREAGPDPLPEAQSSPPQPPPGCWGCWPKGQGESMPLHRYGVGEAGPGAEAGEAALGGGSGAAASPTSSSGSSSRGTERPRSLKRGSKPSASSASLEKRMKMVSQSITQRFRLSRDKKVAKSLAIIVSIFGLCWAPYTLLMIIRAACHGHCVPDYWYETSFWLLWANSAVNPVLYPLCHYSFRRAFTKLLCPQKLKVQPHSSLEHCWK
T2 sequence (Q9QYN8 whole entry): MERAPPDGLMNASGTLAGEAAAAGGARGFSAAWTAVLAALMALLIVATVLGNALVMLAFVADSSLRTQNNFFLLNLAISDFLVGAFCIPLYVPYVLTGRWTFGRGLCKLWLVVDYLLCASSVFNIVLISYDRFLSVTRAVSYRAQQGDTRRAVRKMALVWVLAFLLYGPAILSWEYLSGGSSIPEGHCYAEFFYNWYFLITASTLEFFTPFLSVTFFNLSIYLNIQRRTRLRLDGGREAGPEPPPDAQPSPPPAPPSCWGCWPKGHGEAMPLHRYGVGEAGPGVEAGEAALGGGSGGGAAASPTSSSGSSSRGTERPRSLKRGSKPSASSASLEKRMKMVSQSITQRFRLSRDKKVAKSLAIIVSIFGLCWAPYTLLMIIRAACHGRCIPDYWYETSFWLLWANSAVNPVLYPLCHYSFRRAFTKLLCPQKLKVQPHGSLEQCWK

With `C[C@]12CCC(=O)C=C1CC[C@@H]1[C@@H]2[C@@H](O)C[C@@]2(C)[C@H]1CC[C@]2(O)C(=O)CO` [hydrocortisone] the “anti-inflammatory response (percent inhibition)” value [1] was 132.6%.

For `O=C(O)c1cc(/N=N/c2ccc(S(=O)(=O)Nc3ccccn3)cc2)ccc1O` [Sulfasalazine], the “Ratio Net” value ([2]; group mean minus blank-control) was 0.181%, the “Ratio Ind., X (group mean)” value ([2]; group mean) was 0.551% and the “Ratio Ind. (colon-to-body weight ratio)” value ([2]; individual rat, Colon (g)/8th B.W. × 100%) was 0.496% and 0.508% and 0.650%. The “% INH.” value ([2]; reduction in colon-to-body weight ratio relative to vehicle control) was 49%.

`CC1CNCCN1S(=O)(=O)c1cccc2cnccc12` (stereo not drawn) [Peptide H-7, reference compound] gave an IC50 [3] of 35 µM.

In the case of `Cc1nnc2n1-c1sc(CCC(=O)N3CCOCC3)cc1C(c1ccccc1Cl)=NC2` [WEB-2086, reference compound], the “% Protection” value (PAF-induced mortality; PO one hour before PAF-acether 100 μg/kg IV) is reported as 60% and the “No. of Survival” value (PAF-induced mortality; of 5 mice, one hour after PAF-acether 100 μg/kg IV, PO one hour before) is reported as 3.

For “LEU-PRO-PRO-SER-ARG [synthetic peptide (crude 60%)]”, the “% tumor inhibition” value (Sarcoma 180 tumor; I.P. injections or gavage on days 1-5, 6 mice) was 58.6% and the “Mean tumor wt. gain, gm” value (Sarcoma 180 tumor; net tumor weight, I.P. injections or gavage on days 1-5, 6 mice) was 1.45 gm.

For `C[C@@H](N)Cc1c[nH]cn1` [R (α)-Methylhistamine, R-α-Methyl histamine, reference compound], the “Agonism, Ave.” value (histamine H3 receptor; average of two preparations) was 100%, the Agonism (histamine H3 receptor; individual preparation) was 100% and the “Inc. of TP X ± SEM” value ([4]; group mean, N=3) was 11.3 ± 7.2 cm H2O. The “Inc. of TP Ind.” value ([4]; individual guinea pig, tracheal pressure after ovalbumin 50 μg/kg IV) was 8.5 cm H2O and 25.0 cm H2O and 0.5 cm H2O and the “% INH.” value ([4]; inhibition of induced bronchoconstriction relative to vehicle) was 61.6%.

With `O=P1(N(CCCl)CCCl)NCCCO1` (stereo not drawn) [Cyclophosphamide, Cyclophosphamide Monohydrate] the “% INH.” value ([5]; decrease of net ear thickness relative to vehicle control) was 51%, the “Thickness Net, X (group mean)” value ([5]; group mean) was 13.4 × 0.1 mm and the “Thickness Net” value ([5]; individual mouse, R. Ear minus L. Ear, Monohydrate) was 16 × 0.1 mm and 10 × 0.1 mm and 14 × 0.1 mm and 7 × 0.1 mm and 20 × 0.1 mm. For the same molecule, the “Thickness R. Ear” value ([5]; individual mouse, challenged right ear, 24 hours after oxazolone challenge, Monohydrate) was 38 × 0.1 mm and 26 × 0.1 mm and 32 × 0.1 mm and 23 × 0.1 mm and 40 × 0.1 mm and the “Thickness L. Ear” value ([5]; individual mouse, left ear, Monohydrate) was 22 × 0.1 mm and 16 × 0.1 mm (2×) and 18 × 0.1 mm and 20 × 0.1 mm.

With `S=C(NC1CCCCC1)N1CCC(c2cnc[nH]2)CC1` [Thioperamide] the “Agonism, Ave.” value (histamine H3 receptor; average of two preparations) was 0%, the “Antagonism, Ave.” value (histamine H3 receptor; average of two preparations) was 93% and the Antagonism (histamine H3 receptor; individual preparation, reduction of 0.3 μM R(α)-methylhistamine-induced relaxation) was 90% and 96%. The Agonism (histamine H3 receptor; individual preparation) was 0%.

With `CCCCC1C(=O)N(c2ccccc2)N(c2ccccc2)C1=O` [Phenylbutazone] the “anti-inflammatory response (percent inhibition)” value [1] was 112.2%.

With `CNCCc1cnc[nH]1` [NAMH] the IC50 (Histamine H3; read-out: ^1IC, (IC50 of reference compound)) was 2.9 nM and the Ki (Histamine H3; read-out: ^1K1 (Ki of reference ligand)) was 0.75 nM.
